Data as given in patent publication US20150315188A1, “COMPOUNDS AND METHODS FOR TREATMENT OF HYPERTENSION” (MEDIVATION TECHNOLOGIES, INC., priority 2012, published 2015).
Where two headings read alike, the source gives them in different places.

Columns and labels:
Parameters in all cases: purchased Milipore (Millipore)
[1] = biological target: T1, Human adrenergic α2B receptor (Homo sapiens, UniProt P18089); assay: Radioligand binding, adrenergic α2B (Protocol Group B); details: Protocol Group B; for Percentage inhibition of ligand binding, Adrenergic α2B (10 nM): 10 nM compound, 0.01 µM; for Percentage inhibition of ligand binding, Adrenergic α2B (30 nM): 0.03 µM
T1 sequence (P18089 1-450): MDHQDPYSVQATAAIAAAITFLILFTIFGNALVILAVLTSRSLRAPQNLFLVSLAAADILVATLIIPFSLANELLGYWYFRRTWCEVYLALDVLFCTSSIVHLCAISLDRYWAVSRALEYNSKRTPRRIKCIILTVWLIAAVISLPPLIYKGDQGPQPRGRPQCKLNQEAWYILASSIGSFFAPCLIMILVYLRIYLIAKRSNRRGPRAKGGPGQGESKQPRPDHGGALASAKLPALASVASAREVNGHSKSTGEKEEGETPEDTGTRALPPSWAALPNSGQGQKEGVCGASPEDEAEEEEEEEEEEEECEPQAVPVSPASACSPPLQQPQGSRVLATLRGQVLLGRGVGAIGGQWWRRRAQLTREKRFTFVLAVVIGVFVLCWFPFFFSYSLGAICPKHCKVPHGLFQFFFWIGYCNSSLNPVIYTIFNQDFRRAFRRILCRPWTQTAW
In short: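 Recombinant human α2B receptor membranes incubated with compounds in 50 mM Tris-HCl pH 7.4, 5 mM MgCl2, 1 mM CaCl2, 0.2% BSA, 1% DMSO vehicle. Non-specific binding defined with 10 μM rauwolscine. Values are percent inhibition of specific binding or estimated Ki.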

[2] = biological target: T2, Human adrenergic α2A receptor (Homo sapiens, UniProt P08913); assay: Radioligand binding, adrenergic α2A (Protocol Group B); details: Protocol Group B; for Percentage inhibition of ligand binding, Adrenergic α2A (0.3 μM) / inhibition at 0.3 µM: 0.3 μM compound; for inhibition at 0.3 µM: read-out: Percentage inhibition of ligand binding, Adrenergic α2A (0.3 μM)
T2 sequence (P08913 1-465): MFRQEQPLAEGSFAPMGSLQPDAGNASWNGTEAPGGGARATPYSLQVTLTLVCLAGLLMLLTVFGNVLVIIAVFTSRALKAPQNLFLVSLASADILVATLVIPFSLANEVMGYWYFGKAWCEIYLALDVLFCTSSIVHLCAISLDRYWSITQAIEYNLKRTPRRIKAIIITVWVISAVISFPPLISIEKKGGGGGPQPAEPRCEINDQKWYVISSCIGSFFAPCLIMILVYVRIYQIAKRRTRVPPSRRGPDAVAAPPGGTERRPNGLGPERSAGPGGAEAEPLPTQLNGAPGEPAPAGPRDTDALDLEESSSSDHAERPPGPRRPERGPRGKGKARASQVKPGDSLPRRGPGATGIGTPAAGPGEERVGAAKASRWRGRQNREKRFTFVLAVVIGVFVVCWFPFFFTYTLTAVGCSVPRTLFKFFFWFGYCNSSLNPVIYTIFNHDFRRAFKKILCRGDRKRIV
In short: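 Membranes from recombinant cells expressing the receptor, in 50 mM Tris-HCl pH 7.4 with 5 mM MgCl2, 1 mM CaCl2, 0.2% BSA; compounds incubated with 2 nM [^3H]MK-912 for 60 min at 25° C. Nonspecific binding defined by 10 μM rauwolscine; filtration, counting; percent inhibition of specific binding, or estimated Ki.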

[3] = biological target: T3, Human adrenergic α1B receptor (Homo sapiens, UniProt P35368); assay: Radioligand binding, adrenergic α1B (Protocol Group B); details: Protocol Group B; for Percentage inhibition of ligand binding, Adrenergic α1B (0.1 μM) / inhibition at 0.1 µM: 0.1 μM compound; for Percentage inhibition of ligand binding, Adrenergic α1B (0.3 μM) / inhibition at 0.3 µM: 0.3 μM compound; for inhibition at 0.3 µM: read-out: Percentage inhibition of ligand binding, Adrenergic α1B (0.3 μM); for inhibition at 0.1 µM: read-out: Percentage inhibition of ligand binding, Adrenergic α1B (0.1 μM)
T3 sequence (P35368 1-520): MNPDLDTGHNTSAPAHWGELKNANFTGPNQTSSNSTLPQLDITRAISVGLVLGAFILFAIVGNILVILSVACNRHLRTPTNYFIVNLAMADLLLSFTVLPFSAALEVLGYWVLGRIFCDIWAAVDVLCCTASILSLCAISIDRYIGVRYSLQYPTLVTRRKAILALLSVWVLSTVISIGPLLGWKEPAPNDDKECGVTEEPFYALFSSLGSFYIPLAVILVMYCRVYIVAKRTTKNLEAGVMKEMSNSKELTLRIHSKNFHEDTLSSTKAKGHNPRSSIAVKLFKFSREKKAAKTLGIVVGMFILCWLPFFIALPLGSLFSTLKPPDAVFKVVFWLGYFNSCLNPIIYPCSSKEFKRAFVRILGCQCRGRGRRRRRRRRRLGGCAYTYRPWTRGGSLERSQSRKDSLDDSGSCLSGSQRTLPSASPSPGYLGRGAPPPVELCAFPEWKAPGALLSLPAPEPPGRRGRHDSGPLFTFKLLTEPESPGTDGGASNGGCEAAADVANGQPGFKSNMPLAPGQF
In short: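 Recombinant human α1B membranes incubated with test compound and 0.3 nM [3H]prazosin, 60 min at 25 °C, in 50 mM Tris-HCl pH 7.4, 10 mM MgCl2, 1 mM EDTA; nonspecific binding with 10 μM prazosin. Filter-bound radioactivity counted; values are % inhibition of specific binding or estimated Ki.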

Structure (SMILES)	Percentage inhibition of ligand binding, Adrenergic α2B (10 nM) [1] [%]	Percentage inhibition of ligand binding, Adrenergic α2B (30 nM) ([1]; 30 nM compound) [%]	Percentage inhibition of ligand binding, Adrenergic α2A (0.1 μM) ([2]; 0.1 μM compound) [%]	Percentage inhibition of ligand binding, Adrenergic α2A (0.3 μM) [2] [%]	Percentage inhibition of ligand binding, Adrenergic α1B (0.1 μM) [3] [%]	Percentage inhibition of ligand binding, Adrenergic α1B (0.3 μM) [3] [%]	inhibition at 0.1 µM ([1]; 0.1 μM compound, read-out: Percentage inhibition of ligand binding, Adrenergic α2B (0.1 μM)) [%]	inhibition at 0.3 µM [2] [%]	inhibition at 0.3 µM [3] [%]	Percentage inhibition of ligand binding, Adrenergic α2B (0.1 μM) ([1]; 0.1 μM compound) [%]	inhibition at 0.03 µM ([1]; 30 nM compound, read-out: Percentage inhibition of ligand binding, Adrenergic α2B (30 nM)) [%]	inhibition at 0.1 µM [3] [%]	Ki ([1]; Ki α2B, estimated Ki) [nM]	inhibition at 0.01 µM ([1]; read-out: Percentage inhibition of ligand binding, Adrenergic α2B (10 nM), 10 nM compound) [%]	inhibition at 0.03 µM ([1]; read-out: Percentage inhibition of ligand binding, Adrenergic α2B (30 nM), 30 nM compound) [%]	inhibition at 0.1 µM ([1]; read-out: Percentage inhibition of ligand binding, Adrenergic α2B (0.1 μM), 0.1 μM compound) [%]	inhibition at 0.1 µM ([2]; 0.1 μM compound, read-out: Percentage inhibition of ligand binding, Adrenergic α2A (0.1 μM)) [%]
Cc1cc(F)c2c(c1)c1c(n2CC(C)(O)c2cccnc2)CCN2CCCC12 (single isomer, unassigned) [79d]	−7	3	−7	5	−4	1	–	–	–	–	–	–	–	–	–	–	–
Cc1cc(F)c2c(c1)c1c(n2CC(C)(O)c2ccncc2)CCN2CCCC12 (single isomer, unassigned) [81c]	−2	0	3	–	2	–	17	8	11	–	–	–	–	–	–	–	–
Cc1cc(F)c2c(c1)c1c(n2CC(C)(O)c2ccncc2)CCN2CCCC12 (single isomer, unassigned) [81d]	−7	8	11	6	5	9	–	–	–	18	–	–	–	–	–	–	–
CC(O)(Cn1c2c(c3cc(Cl)cc(F)c31)CN1CCCC1C2)c1ccncc1 (single isomer, unassigned) [86a]	−2	–	−4	–	–	30	–	11	–	–	23	2	–	–	–	–	–
CC(O)(Cn1c2c(c3cc(Cl)cc(F)c31)CN1CCCC1C2)c1ccncc1 (single isomer, unassigned) [86b]	14	17	11	14	3	15	–	–	–	–	–	–	–	–	–	–	–
CC(O)(Cn1c2c(c3cc(Cl)cc(F)c31)CN1CCCC1C2)c1ccncc1 (single isomer, unassigned) [86d]	13	28	7	11	3	13	–	–	–	–	–	–	–	–	–	–	–
CC(O)(Cn1c2c(c3cc(F)cc(Cl)c31)C1CCCN1CC2)c1cccnc1 (single isomer, unassigned) [89a]	−9	−9	23	–	12	–	–	9	13	–	–	–	–	–	–	–	–
CC(O)(Cn1c2c(c3cc(F)cc(Cl)c31)C1CCCN1CC2)c1cccnc1 (single isomer, unassigned) [89b]	0	1	8	6	3	9	–	–	–	–	–	–	–	–	–	–	–
Cc1cc(Cl)c2c(c1)c1c(n2CC(C)(O)c2ccncc2)CCN2CCCC12 (single isomer, unassigned) [91c]	−16	−4	−14	−3	−20	−7	–	–	–	–	–	–	–	–	–	–	–
Cc1cc(Cl)c2c(c1)c1c(n2CC(C)(O)c2ccncc2)CCN2CCCC12 (single isomer, unassigned) [91d]	−1	24	−2	11	−19	6	–	–	–	–	–	–	–	–	–	–	–
Cc1ccc2c(c1)c1c(n2CC(C)(O)c2cccnc2)CC2CCC1N2C (single isomer, unassigned) [101a]	–	–	–	–	–	–	–	21	17	–	–	6	16.2	23	38	71	7
Cc1ccc2c(c1)c1c(n2CC(C)(O)c2cccnc2)CC2CCC1N2C (single isomer, unassigned) [101b]	2	3	1	8	−3	–	–	–	5	32	–	–	–	–	–	–	–
